# Data as given in patent US9732087B2, “Diamino-pyridine, pyrimidine, and pyridazine modulators of the histamine H4 receptor” (JANSSEN PHARMACEUTICA NV, priority 2008, dated 2017).
# Structures can show the parent of a compound that is named as a salt.
# Target: T1, human H4 receptor (Homo sapiens (Human), UniProt Q9H3N8)
# Assay: Binding assay on recombinant human histamine H4 receptor ([3H]histamine competition, SK-N-MC cell membranes)
# Settings: membranes harvested with cell harvester; [3H]histamine 10 nM; average of results; read-out: Cell Harvester Ki
# In short: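 Scintillation counting of filter-bound [3H]histamine after rapid harvesting on 0.5% PEI-treated GF/C filters with ice-cold Tris/EDTA washes. Receptor source: 30,000 g membrane pellets of SK-N-MC cells stably or transiently expressing human H4. Values shown as '>' are the top concentration tested.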
# T1 sequence (Q9H3N8 whole entry): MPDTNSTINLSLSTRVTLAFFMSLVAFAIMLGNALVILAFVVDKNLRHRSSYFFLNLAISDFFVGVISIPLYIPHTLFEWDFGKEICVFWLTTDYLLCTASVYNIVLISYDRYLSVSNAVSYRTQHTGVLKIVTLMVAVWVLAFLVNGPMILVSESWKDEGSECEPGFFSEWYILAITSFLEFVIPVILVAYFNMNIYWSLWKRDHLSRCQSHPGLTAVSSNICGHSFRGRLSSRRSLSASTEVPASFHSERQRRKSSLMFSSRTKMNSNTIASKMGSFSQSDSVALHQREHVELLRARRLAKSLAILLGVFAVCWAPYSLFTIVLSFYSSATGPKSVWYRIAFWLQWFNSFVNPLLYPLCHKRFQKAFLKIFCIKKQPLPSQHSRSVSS
row,SMILES,Ki [nM]
1,"CCCNc1cc(N2CC[C@@H](NC)C2)ccn1 [Example 3, 4-[(3R)-3-(Methylamino)pyrrolidin-1-yl]-N-propylpyridin-2-amine dihydrochloride]",7.26
2,"CN[C@@H]1CCN(c2ccnc(NCC3CC3)c2)C1 [Example 4, N-(Cyclopropylmethyl)-4-[(3R)-3-(methylamino)pyrrolidin-1-yl]pyridin-2-amine ditrifluoroacetate]",4.9
3,"CN[C@@H]1CCN(c2ccnc(NC(C)C)c2)C1 [Example 12, 4-[(3R)-3-(Methylamino)pyrrolidin-1-yl]-N-(1-methylethyl)pyridin-2-amine]",19.2
4,"CN[C@@H]1CCN(c2cnnc(NCCc3ccccc3)c2)C1 [Example 372, 5-[(3R)-3-(Methylamino)pyrrolidin-1-yl]-N-(2-phenylethyl)pyridazin-3-amine]",139
5,"CN[C@H]1CCN(c2cnnc(N[C@H](C)C3CCCCC3)c2)C1 [Example 373, N-[(1R)-1-Cyclohexylethyl]-5-[(3S)-3-(methylamino)pyrrolidin-1-yl]pyridazin-3-amine]",143
6,"CN[C@H]1CCN(c2cnnc(NCC3CC4CCC3C4)c2)C1 (stereo partly drawn) [Example 374, N-(Bicyclo[2.2.1]hept-2-ylmethyl)-5-[(3S)-3-(methylamino)pyrrolidin-1-yl]pyridazin-3-amine]",298
7,"CN[C@@H]1CCN(c2cnnc(NCC3CC4CCC3C4)c2)C1 (stereo partly drawn) [Example 375, N-(Bicyclo[2.2.1]hept-2-ylmethyl)-5-[(3R)-3-(methylamino)pyrrolidin-1-yl]pyridazin-3-amine]",66.8
8,"CN[C@H]1CCN(c2cnnc(NCCOC)c2)C1 [Example 376, N-(2-Methoxyethyl)-5-[(3S)-3-(methylamino)pyrrolidin-1-yl]pyridazin-3-amine]",> 10000
9,"CN[C@@H]1CCN(c2cnnc(NC3CC3)c2)C1 [Example 377, N-Cyclopropyl-5-[(3R)-3-(methylamino)pyrrolidin-1-yl]pyridazin-3-amine]",699
10,"CN[C@@H]1CCN(c2cnnc(N[C@H](C)C3CCCCC3)c2)C1 [Example 378, N-[(1R)-1-Cyclohexylethyl]-5-[(3R)-3-(methylamino)pyrrolidin-1yl]pyridazin-3-amine]",6.16
11,"CN[C@H]1CCN(c2cnnc(NCC(C)C)c2)C1 [Example 379, 5-[(3S)-3-(Methylamino)pyrrolidin-1-yl]-N-(2-methylpropyl)pyridazin-3-amine]",296
12,"CN[C@H]1CCN(c2cnnc(NCC3CCCC3)c2)C1 [Example 382, N-(Cyclopentylmethyl)-5-[(3S)-3-(methylamino)pyrrolidin-1-yl]pyridazin-3-amine]",138
13,"CN[C@H]1CCN(c2cnnc(NCC(C)(C)CO)c2)C1 [Example 383, 2,2-Dimethyl-3-({5-[(3S)-3-(methylamino)pyrrolidin-1-yl]pyridazin-3-yl}amino)propan-1-ol]",596
14,"CN[C@@H]1CCN(c2cnnc(NCc3ccc(C)cc3)c2)C1 [Example 384, 5-[(3R)-3-(Methylamino)pyrrolidin-1-yl]-N-(4-methylbenzyl)pyridazin-3-amine]",2000
15,"CN[C@H]1CCN(c2cnnc(NCC(C)(C)C)c2)C1 [Example 385, N-(2,2-Dimethylpropyl)-5-[(3S)-3-(methylamino)pyrrolidin-1-yl]pyridazin-3-amine]",259
16,"CN[C@@H]1CCN(c2cnnc(NCCCC(F)(F)F)c2)C1 [Example 386, 5-[(3R)-3-(Methylamino)pyrrolidin-1-yl]-N-(4,4,4-trifluorobutyl)pyridazin-3-amine]",284
17,"CN[C@@H]1CCN(c2cnnc(NCc3ccoc3)c2)C1 [Example 387, N-(Furan-3-ylmethyl)-5-[(3R)-3-(methylamino)pyrrolidin-1-yl]pyridazin-3-amine]",835
18,"CN[C@@H]1CCN(c2cnnc(NCC3CCC4CC3C4(C)C)c2)C1 (stereo partly drawn) [Example 388, N-[(6,6-Dimethylbicyclo[3.1.1]hept-2-yl)methyl]-5-[(3R)-3-(methylamino)pyrrolidin-1-yl]pyridazin-3-amine]",293
19,"CN[C@H]1CCN(c2cnnc(NCCCC(F)(F)F)c2)C1 [Example 389, 5-[(3S)-3-(Methylamino)pyrrolidin-1-yl]-N-(4,4,4-trifluorobutyl)pyridazin-3-amine]",1750
20,"CN[C@@H]1CCN(c2cnnc(NCCCO)c2)C1 [Example 390, 3-({5-[(3R)-3-(Methylamino)pyrrolidin-1-yl]pyridazin-3-yl}amino)propan-1-ol]",> 10000

row,SMILES,Ki [nM]
1,"CN[C@@H]1CCN(c2cnnc(NCC3CCCCC3)c2)C1 [Example 391, N-(Cyclohexylmethyl)-5-[(3R)-3-(methylamino)pyrrolidin-1-yl]pyridazin-3-amine]",36.5
2,"CN[C@@H]1CCN(c2cnnc(NCCOC)c2)C1 [Example 393, N-(2-Methoxyethyl)-5-[(3R)-3-(methylamino)pyrrolidin-1-yl]pyridazin-3-amine]",1810
3,"CN[C@H]1CCN(c2cnnc(NCC3CCC4CC3C4(C)C)c2)C1 (stereo partly drawn) [Example 394, N-[(6,6-Dimethylbicyclo[3.1.1]hept-2-yl)methyl]-5-[(3S)-3-(methylamino)pyrrolidin-1-yl]pyridazin-3-amine]",634
4,"CN[C@H]1CCN(c2cnnc(NC3CC3)c2)C1 [Example 395, N-Cyclopropyl-5-[(3S)-3-(methylamino)pyrrolidin-1-yl]pyridazin-3-amine]",1900
5,"CN[C@H]1CCN(c2cnnc(NCC3CCCCC3)c2)C1 [Example 396, N-(Cyclohexylmethyl)-5-[(3S)-3-(methylamino)pyrrolidin-1-yl]pyridazin-3-amine]",380
6,"CN[C@@H]1CCN(c2cnnc(NCc3ccccc3)c2)C1 [Example 397, N-Benzyl-5-[(3R)-3-(methylamino)pyrrolidin-1-yl]pyridazin-3-amine]",353
7,"CN[C@@H]1CCN(c2cnnc(NCc3ccc(F)cc3)c2)C1 [Example 398, N-(4-Fluorobenzyl)-5-[(3R)-3-(methylamino)pyrrolidin-1-yl]pyridazin-3-amine]",347
8,"CN[C@H]1CCN(c2cnnc(NCc3ccc(F)cc3)c2)C1 [Example 399, N-(4-Fluorobenzyl)-5-[(3S)-3-(methylamino)pyrrolidin-1-yl]pyridazin-3-amine]",3940
9,"CN[C@@H]1CCN(c2cnnc(NCc3ccc(OC)cc3)c2)C1 [Example 400, N-(4-Methoxybenzyl)-5-[(3R)-3-(methylamino)pyrrolidin-1-yl]pyridazin-3-amine]",2150
10,"CN[C@@H]1CCN(c2cnnc(N[C@H](C)c3ccccc3)c2)C1 [Example 401, 5-[(3R)-3-(Methylamino)pyrrolidin-1-yl]-N-[(1R)-1-phenylethyl]pyridazin-3-amine]",79.3
11,"CN[C@H]1CCN(c2cnnc(NCCCO)c2)C1 [Example 403, 3-({5-[(3S)-3-(Methylamino)pyrrolidin-1-yl]pyridazin-3-yl}amino)propan-1-ol]",> 10000
12,"CN1CCN(c2cnnc(NCC(C)(C)C)c2)CC1 [Example 404, 5-(4-methylpiperazin-1-yl)-N-neopentylpyridazin-3-amine dihydro chloride]",4300
13,"COCCNc1cc(N2CCN(C)CC2)cnn1 [Example 405, N-(2-Methoxyethyl)-5-(4-methylpiperazin-1-yl)pyridazin-3-amine]",> 10000
14,"CN1CCN(c2cnnc(NC3CC4CCC3C4)c2)CC1 (stereo not drawn) [Example 406, N-Bicyclo[2.2.1]hept-2-yl-5-(4-methylpiperazin-1-yl)pyridazin-3-amine]",178
15,"CN1CCN(c2cnnc(NC3CCCC3)c2)CC1 [Example 407, N-Cyclopentyl-5-(4-methylpiperazin-1-yl)pyridazin-3-amine]",824
16,"CN1CCN(c2cnnc(NCC3CCCC3)c2)CC1 [Example 408, N-(Cyclopentylmethyl)-5-(4-methylpiperazin-1-yl)pyridazin-3-amine]",> 10000
17,"CN1CCN(c2cnnc(NCCc3ccccc3)c2)CC1 [Example 409, 5-(4-Methylpiperazin-1-yl)-N-(2-phenylethyl)pyridazin-3-amine]",> 10000
18,"CN1CCN(c2cnnc(NCc3ccccc3)c2)CC1 [Example 410, N-Benzyl-5-(4-methylpiperazin-1-yl)pyridazin-3-amine]",> 10000
19,"CN[C@@H]1CCN(c2cnnc(NC3CCCC3)c2)C1 [Example 412, N-cyclopentyl-5-[(3R)-3-(methylamino)pyrrolidin-1-yl]pyridazin-3-amine]",5.6

# Target: T1, human H4 receptor
# Assay: cell-based
# Assay type: cell-based
# Settings: apparent pA2 from Schild plot; antagonism of histamine inhibition of forskolin-stimulated cAMP
# Experimental: SK-N-MC cell lines were created that express a reporter gene construct and the human H4 receptor full-coding region (NCBI accession No. AF312230). The reporter gene was β-galactosidase under the control of cyclic AMP-responsive elements. Cells were plated in 96-well plates the night before the assay. Histamine was used as the agonist for all assay. For the H4 receptor, the inhibition of forskolin-stimulated cAMP production was measured. For determination of antagonist activity, compounds were added 10 min prior to the addition of agonist, which was added directly to the cell medium. Forskolin (5 μM final concentration) was added 10 min after the addition of histamine. Cells were returned to the incubator for 6 h at 37° C. The medium was then aspirated, and the cells were washed with […] of phosphate-buffered saline (PBS). Cells were lysed with 25 μL of 0.1X assay buffer (10 mM sodium phosphate, pH 8, 0.2 mM MgSO4, and 0.01 mM MnCl2) and incubated at rt for 10 min. Cells were then incubated for 10 min with 100 μL of 1X assay buffer containing 0.5% (v/v) Triton X-100 and 40 mM β-mercaptoethanol. Color was developed using 25 μL of 1 mg/mL substrate solution (chlorophenol red β-D-galactopyranoside; Roche Applied Science, Indianapolis, Ind.). Color was quantitated on a microplate reader by measuring the absorbance at 570 nm. The data from each concentration-response curve were fitted to a sigmoidal curve to obtain the maximum response, Hill coefficient, and EC50 using Prism (GraphPad Software, San Diego, Calif.). Dose ratios were calculated from individual concentration-response curves of agonists at three to five antagonist concentrations. Apparent pA2 values were calculated using a Schild plot (ND=not determined).
row,SMILES,pA2
1,"CN[C@@H]1CCN(c2ccnc(NC(C)C)c2)C1 [Example 12, 4-[(3R)-3-(Methylamino)pyrrolidin-1-yl]-N-(1-methylethyl)pyridin-2-amine]",8.5

# Same assay, conditions: apparent pA2 from Schild plot; antagonism of histamine inhibition of forskolin-stimulated cAMP; read-out: pA2 (converted)
row,SMILES,Kb [nM]
1,"CCCNc1cc(N2CC[C@@H](NC)C2)ccn1 [Example 3, 4-[(3R)-3-(Methylamino)pyrrolidin-1-yl]-N-propylpyridin-2-amine dihydrochloride]",2
2,"CN[C@@H]1CCN(c2ccnc(NCC3CC3)c2)C1 [Example 4, N-(Cyclopropylmethyl)-4-[(3R)-3-(methylamino)pyrrolidin-1-yl]pyridin-2-amine ditrifluoroacetate]",1.38
